Measured values from the supplement of paper PMC10307832.

Tests used:
Test in all cases: relative viability (nuclei count vs DMSO), 5 days (fraction); higher = more cells survive
Ibrutinib + Navitoclax = compound: C=CC(=O)N1CCC[C@@H](n2nc(-c3ccc(Oc4ccccc4)cc3)c3c(N)ncnc32)C1 [Ibrutinib] + CC1(C)CCC(c2ccc(Cl)cc2)=C(CN2CCN(c3ccc(C(=O)NS(=O)(=O)c4ccc(N[C@H](CCN5CCOCC5)CSc5ccccc5)c(S(=O)(=O)C(F)(F)F)c4)cc3)CC2)C1 [Navitoclax] (partner 0.5 µM)
In short: (§1)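 Dosing by pin tool came one day after lung cancer cell lines were seeded in 1536-well plates, using either one drug or a fixed anchor-drug dose plus five library-drug doses (not always all listed) in √10 steps. After 5 days, nuclei were counted on 4× images. Relative viability is treated-well nuclei count divided by vehicle-well nuclei count, and values are medians of duplicate plates.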

Ibrutinib + Alpelisib = compound: C=CC(=O)N1CCC[C@@H](n2nc(-c3ccc(Oc4ccccc4)cc3)c3c(N)ncnc32)C1 [Ibrutinib] + Cc1nc(NC(=O)N2CCC[C@H]2C(N)=O)sc1-c1ccnc(C(C)(C)C(F)(F)F)c1 [Alpelisib] (partner 2 µM)
In short: as §1

BMX-IN-1 + Vorinostat = compound: C=CC(=O)Nc1cc(-n2c(=O)ccc3cnc4ccc(-c5ccc(NS(C)(=O)=O)cc5)cc4c32)ccc1C [BMX-IN-1] + O=C(CCCCCCC(=O)Nc1ccccc1)NO [Vorinostat] (partner 1 µM)
In short: as §1

BMX-IN-1 + Olaparib = compound: C=CC(=O)Nc1cc(-n2c(=O)ccc3cnc4ccc(-c5ccc(NS(C)(=O)=O)cc5)cc4c32)ccc1C [BMX-IN-1] + O=C(c1cc(Cc2n[nH]c(=O)c3ccccc23)ccc1F)N1CCN(C(=O)C2CC2)CC1 [Olaparib] (partner 8 µM)
In short: as §1

| Cell Line | relative viability (Ibrutinib + Navitoclax; first compound 0.005 µM) | relative viability (Ibrutinib + Navitoclax; first compound 0.05 µM) | relative viability (Ibrutinib + Navitoclax; first compound 0.1581 µM) | relative viability (Ibrutinib + Navitoclax; first compound 0.5 µM) | relative viability (Ibrutinib + Alpelisib; first compound 0.005 µM) | relative viability (Ibrutinib + Alpelisib; first compound 0.01581 µM) | relative viability (Ibrutinib + Alpelisib; first compound 0.05 µM) | relative viability (Ibrutinib + Alpelisib; first compound 0.1581 µM) | relative viability (Ibrutinib + Alpelisib; first compound 0.5 µM) | relative viability (BMX-IN-1 + Vorinostat; first compound 0.02 µM) | relative viability (BMX-IN-1 + Vorinostat; first compound 0.2 µM) | relative viability (BMX-IN-1 + Vorinostat; first compound 0.6325 µM) | relative viability (BMX-IN-1 + Vorinostat; first compound 2 µM) | relative viability (BMX-IN-1 + Olaparib; first compound 0.02 µM) | relative viability (BMX-IN-1 + Olaparib; first compound 0.2 µM) | relative viability (BMX-IN-1 + Olaparib; first compound 0.6325 µM) | relative viability (BMX-IN-1 + Olaparib; first compound 2 µM) | relative viability (Ibrutinib + Navitoclax; first compound 0.01581 µM) |
| --- | --- | --- | --- | --- | --- | --- | --- | --- | --- | --- | --- | --- | --- | --- | --- | --- | --- | --- |
| RERF-LC-KJ | 0.872 | 0.699 | 0.745 | 0.677 | 0.526 | 0.731 | 0.791 | 0.638 | 0.585 | 0.77 | 0.734 | 0.824 | 0.45 | 0.968 | 1.09 | 1.06 | 0.923 | – |
| NCI-H1650 | 0.998 | 1.24 | 1.25 | 1.1 | – | – | – | – | – | 0.501 | 0.452 | 0.571 | 0.522 | 0.977 | 0.914 | 0.762 | 0.77 | 0.932 |
| NCI-H1355 | – | 0.918 | 0.96 | 0.801 | – | 0.704 | 0.782 | 0.887 | 0.646 | 0.705 | 0.706 | 0.697 | 0.76 | 0.805 | 0.813 | 0.713 | 0.749 | 0.904 |
| NCI-H2085 | 1.1 | 1 | 1.13 | – | 0.965 | 0.893 | 0.862 | 0.977 | 0.743 | 0.816 | 0.771 | 0.821 | 0.831 | 0.807 | 0.704 | 0.782 | 0.746 | 1.13 |
| NCI-H650 | – | – | – | – | – | 1 | – | 1.26 | 1.13 | 0.475 | 0.52 | 0.48 | 0.438 | 0.366 | 0.379 | 0.469 | 0.456 | – |
| NCI-H460 | 1.27 | 1.09 | 1.2 | 1.13 | 0.5 | 0.319 | 0.496 | 0.536 | 0.538 | 1.05 | – | 1.11 | 0.782 | 0.481 | 0.475 | 0.445 | 0.439 | 1.01 |
| NCI-H1666 | 0.762 | 0.521 | 1.06 | 0.451 | 0.677 | 0.726 | – | 1.11 | 0.426 | 1.03 | 1.05 | 1.13 | 1.15 | 0.753 | 0.806 | 0.631 | 0.769 | 0.806 |
| LK-2 | – | 0.851 | 0.956 | 0.75 | – | 0.837 | 1.36 | 0.938 | 0.89 | 0.289 | 0.151 | 0.282 | 0.365 | 0.799 | 0.69 | 0.775 | 0.902 | 0.7 |
| NCI-H2009 | 1.13 | 1.22 | 1.21 | 1.16 | 1.24 | 1.12 | 1.16 | 1.15 | 1.16 | 0.782 | 0.798 | 0.746 | 0.839 | 0.838 | 0.646 | 0.654 | 0.66 | 1.12 |
| Calu-6 | 0.954 | 0.771 | 0.955 | 0.756 | 1.02 | 0.993 | – | 1.06 | 0.93 | – | – | – | – | 0.533 | 0.656 | 0.607 | 0.565 | 0.746 |
| NCI-H1703 | 0.896 | 1.05 | 1.17 | 0.731 | 0.273 | 0.362 | 0.362 | 0.397 | 0.243 | – | – | – | – | 0.486 | 0.368 | 0.284 | 0.336 | 0.96 |
| NCI-H661 | – | – | – | – | 0.467 | 0.68 | 0.358 | 0.524 | 0.216 | 0.878 | 0.877 | 0.857 | 0.743 | 0.963 | 0.758 | 0.81 | 0.738 | – |
| ChaGo-K-1 | 0.506 | 0.933 | – | 1.19 | – | – | – | – | – | 0.91 | 0.984 | 0.835 | 0.768 | 0.435 | 0.443 | 0.416 | 0.417 | 1.12 |
| NCI-H2342 | – | – | – | – | – | – | – | – | – | 0.827 | 0.728 | 0.71 | 0.65 | 0.44 | 0.446 | 0.473 | 0.43 | – |
| ABC-1 | – | – | – | – | 0.922 | 0.813 | 1.05 | 1.17 | 0.983 | 1.34 | 1.6 | 1.39 | 1.21 | 0.749 | 1.02 | 0.815 | 0.978 | – |
| NCI-H522 | – | – | – | – | – | – | – | – | – | 0.979 | 0.786 | 0.832 | 0.968 | 0.656 | 0.689 | 0.66 | 0.601 | – |
| NCI-H1792 | 0.669 | 0.69 | 0.474 | 0.599 | 0.716 | 0.698 | 0.764 | 0.782 | 0.65 | – | – | – | – | 0.492 | 0.436 | 0.491 | 0.322 | 0.694 |
| NCI-H1648 | – | – | – | – | – | – | – | – | – | 0.522 | 1 | 0.3 | 0.503 | 0.994 | 0.849 | 0.958 | 0.925 | – |
| NCI-H358 | – | – | – | – | 0.817 | 0.603 | 0.504 | 0.887 | 0.36 | 0.816 | 0.811 | 0.788 | 0.652 | 0.634 | 0.743 | 0.71 | 0.548 | – |
